Consider two compounds from patent US20100068174A1, “COMBINATION WITH BIS (THIOHYDRAZIDE AMIDES) FOR TREATING CANCER” (Synta Pharmaceuticals Corp., priority 2006, published 2010).

One data set is described as follows: in vivo. The following applies: female, SW, mouse, iv. The procedure: Tissue samples were prepared by homogenizing a weighed tissue sample in phosphor-buffered saline (PBS, ×1)+1% DTT (×1)+CH3CN (0.1% HCOOH) (×3)), centrifuged at 10,000 rpm×5 min; 150 μL supernatant+90 μL H2O. 100 μL prepared samples were subjected to HPLC, using 5-95% CH3CN (0.1% HCOOH) as the eluent. The running time was 15 min.

Data set [1] relates to Stage IV metastatic melanoma patients. The following applies: RECIST, Efficacy Sample.
Description: Patients were treated until progression of the disease. […] The tumor assessments were performed at baseline, Cycle 2, and every other Cycle thereafter.

For the compound `CN(NC(=O)CC(=O)NN(C)C(=S)C1CC1)C(=S)C1CC1` [Compound (18)], in the data set “in vivo”, the Kp at 30 min was roughly 1.64 and the concentration at 30 min was roughly 51 µM.

As for `CC(=O)O[C@H]1C(=O)[C@@]2(C)[C@H]([C@H](OC(=O)c3ccccc3)[C@]3(O)C[C@H](OC(=O)[C@H](O)[C@@H](NC(=O)c4ccccc4)c4ccccc4)C(C)=C1C3(C)C)[C@]1(OC(C)=O)CO[C@@H]1C[C@@H]2O` [Paclitaxel], the “CR + PR (95% CI)” value in data set [1] is 3.7% (0.1%,.
